“Also recorded” adds a separate entry of the source. Structures can show the parent of a compound that is named as a salt. Where two headings read alike, the source gives them in different places.
What was measured:
[1] = system: ulcerative colitis patient
[2] = cited from earlier work
UC patients = settings: 60 UC patients; cited from earlier work
[3] = system: patients with IBD, CD, and UC; test: Retrospective propensity-matched cohort study (TriNetX), secondary analysis: A/P vs HAV, HCQ, MES; type: in vivo, human; settings: propensity score matched, within 1 year of exposure
Description: Using a multi-institutional database, after 1:1 propensity score matching, we identified adult all-cause IBD patients between 2000 and 2019. […] Outcomes were steroid use, hospitalization, or advanced therapy use within 1 year of exposure. The experiments were repeated in Crohn's disease (CD) and ulcerative colitis (UC) patient cohorts. […]
A retrospective cohort study was performed using a de-identified multi-institutional database with 80 contributing healthcare organizations (HCO), including over 113 million patients (TriNetX Research Network, Cambridge, Massachusetts, date of data access Dec. 7, 2023; IRB exempt). TriNetX regularly aggregates clinical data directly from participating HCOs, primarily in the United States, including extensive data quality and accuracy assessment. Institutional information relating to participating HCOs is also de-identified, however, a typical HCO includes a large academic healthcare center with prevalent capabilities for inpatient services, outpatient services, and specialty care services.
A second analysis was performed to identify all adult patients (aged≥18 years) diagnosed with IBD, including Crohn's disease (CD, ICD-10: K50) and/or ulcerative colitis (UC, ICD-10: K51), between Jan. 1, 2000, and Dec. 31, 2019. […] The index event for all groups was the time of the patient's first prescription.
If there were multiple prescriptions, the index event was defined as the date of the first prescription. Information on duration and dosage was not available.
The outcomes of steroid use (yes/no), hospitalization (yes/no), and advanced therapy use (yes/no) were chosen as they are generally regarded as surrogate markers for IBD activity. Steroid use was defined as a prescription for prednisone, methylprednisolone, or budesonide. All-cause hospitalization was used because TriNetX could not specify a cause for hospitalization. Advanced therapy use was defined as a prescription for adalimumab, certolizumab pegol, golimumab, infliximab, vedolizumab, ustekinumab, tofacitinib, azathioprine, mercaptopurine, or methotrexate. Information on the duration and dosage of outcome drugs was also not available.
This created a potential for bias in that many patients may experience one or more of the measured outcomes (steroid use, hospitalization, or advanced therapy use) within the first year of their diagnosis as standard of care. Indexing those patients to a time other than the time of their original diagnosis, for example, to a time when they received a prescription for a different medication, would mitigate that bias.
Comparators that would not only mitigate the index bias, but also address other potential biases, were specifically chosen. […] HAV is also frequently prescribed for travelers, and there happens to be a high degree of geographic overlap among hepatitis A and malaria-endemic regions.
We performed 1:1 greedy nearest neighbor propensity score matching (caliper of 0.1 standard deviations) to balance cohorts on age, sex, race, comorbid conditions (including cardiovascular, pulmonary, rheumatologic, and renal co-morbidities included in the Charlson Comorbidity Index), presence of prior hospitalization, and use of steroids and IBD advanced therapy (as defined above) to control for baseline disease severity and prior presence of any of the measured outcomes (Table 1, Supplemental Table 1). Differences between groups were calculated using either an independent t-test or a chi-square test as appropriate. Estimates of odds ratios (OR), and 95% confidence intervals (CI) were used to describe the outcome risks. P-values of α<0.05 were considered statistically significant.

murine colitis = settings: mouse, in vivo, cited from earlier work
[4] = system: patients with ulcerative colitis; settings: small human trial; cited from earlier work
[5] = system: DSS-induced murine colitis; settings: cited from earlier work
human neutrophils = settings: by preventing up-regulation of CD11b; cited from earlier work
[6] = Crohn's disease, n = 313 per cohort, A/P vs MES
[7] = all-cause IBD, n = 624 per cohort, A/P vs MES
[8] = ulcerative colitis, n = 260 per cohort, A/P vs MES
[9] = Crohn's disease, n = 381 per cohort, A/P vs HCQ
[10] = all-cause IBD, n = 947 per cohort, A/P vs HCQ
[11] = ulcerative colitis, n = 405 per cohort, A/P vs HCQ

C[C@]12C=CC(=O)C=C1CC[C@@H]1[C@@H]2C(=O)C[C@@]2(C)[C@H]1CC[C@]2(O)C(=O)CO [prednisone]
colitis symptoms ([1]; 40 mg daily, after 7 days): no improvement

[H]/N=C(\N/C(=N/[H])Nc1ccc(Cl)cc1)NC(C)C [Proguanil hydrochloride, 1-(4-chlorophenyl)-5-isopropyl-biguanide]
solubility in water [2]: sparingly soluble

CO[C@H]1/C=C/O[C@@]2(C)Oc3c(C)c(O)c4c(O)c(c5c(nc6cc(C)ccn65)c4c3C2=O)NC(=O)/C(C)=C\C=C\[C@H](C)[C@H](O)[C@@H](C)[C@@H](O)[C@@H](C)[C@H](OC(C)=O)[C@@H]1C [rifaximin]
colitis symptoms ([1]; 10-day course, 275 mg TID): symptoms persisted

CCN(CC)CCCC(C)Nc1ccnc2cc(Cl)ccc12 (stereo not drawn) [chloroquine]
adverse events compared to sulfasalazine (UC patients): fewer
remission and response rates compared to sulfasalazine (UC patients): similar

Nc1ccc(O)c(C(=O)O)c1 [MES, mesalamine]
all-cause hospitalization, number of patients [3, 6]: 53
steroid use, number of patients [3, 6]: 162
advanced therapy use, number of patients [3, 7]: 182
all-cause hospitalization, number of patients [3, 7]: 92
steroid use, number of patients [3, 7]: 307
advanced therapy use, number of patients [3, 8]: 31
all-cause hospitalization, number of patients [3, 8]: 47
steroid use, number of patients [3, 8]: 111
therapeutic effect on colitis ([1]; 4.8 grams generic tablets daily, day 1): no therapeutic effect
adverse event ([1]; in vivo): moderate costochondral chest pain

CCN(CCO)CCCC(C)Nc1ccnc2cc(Cl)ccc12 (stereo not drawn) [HCQ, hydroxychloroquine]
all-cause hospitalization, number of patients [3, 9]: 43
steroid use, number of patients [3, 9]: 194
advanced therapy use, number of patients [3, 10]: 277
all-cause hospitalization, number of patients [3, 10]: 118
steroid use, number of patients [3, 10]: 485
advanced therapy use, number of patients [3, 11]: 99
all-cause hospitalization, number of patients [3, 11]: 60
steroid use, number of patients [3, 11]: 211
murine colitis and associated cancer (murine colitis): showed efficacy; also recorded: attenuate murine colitis
murine colitis and associated cancer (murine colitis; listed as Hydroxychloroquine): decrease the incidence
efficacy vs placebo in ulcerative colitis [4]: failed to demonstrate superiority over placebo

O=C1C(O)=C([C@H]2CC[C@H](c3ccc(Cl)cc3)CC2)C(=O)c2ccccc21 [Atovaquone, trans-2-[4-(4-chlorophenyl)cyclohexyl]-3-hydroxy-1,4-naphthalenedione]
colitis (DSS-induced murine / experimental) ([5]; by reducing mucosal neutrophil accumulation): attenuates; also recorded: promoted the resolution
S100A9 and CD11b expression on neutrophil surfaces ([5]; mouse, in vivo): reduction
human neutrophil chemotaxis (human neutrophils): directly suppressed
solubility in water [2]: practically insoluble
